Test results from ChEMBL document CHEMBL1201862, “PubChem BioAssay data set” (2004).
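Tested at 5 concentrations; 48 h exposure; 96-well plates; endpoints linearly interpolated, else capped at highest concentration. GI50 = concentration required for 50% inhibition of growth.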 Activity calls are given as the source filed them. Rule as the data show it: active = GI50 up to about 1.1 µM and inactive = higher.

How the values were obtained:
Assay in all cases: growth of human tumour cells (NCI), 48 h
LOX IMVI = test system: LOX IMVI
HCC 2998 = test system: HCC 2998
COLO 205 = test system: COLO 205
CCRF-CEM = test system: CCRF-CEM
MOLT-4 = test system: MOLT-4
M19-MEL = test system: M19-MEL
DLD-1 = test system: DLD-1
IGROV-1 = test system: IGROV-1
HOP-18 = test system: HOP-18
UACC-257 = test system: UACC-257
HCT-116 = test system: HCT-116
SF-539 = test system: SF-539
ACHN = test system: ACHN
SF-295 = test system: SF-295
HT-29 = test system: HT-29
NCI-H460 = test system: NCI-H460
786-0 = test system: 786-0
Malme-3M = test system: Malme-3M
NCI-H226 = test system: NCI-H226
UO-31 = test system: UO-31
SN12C = test system: SN12C
UACC-62 = test system: UACC-62
SF-268 = test system: SF-268
OVCAR-3 = test system: OVCAR-3
HOP-62 = test system: HOP-62
SK-MEL-5 = test system: SK-MEL-5
SK-MEL-28 = test system: SK-MEL-28
NCI-H522 = test system: NCI-H522
U-251 = test system: U-251
SK-MEL-2 = test system: SK-MEL-2
KM12 = test system: KM12
NCI-H23 = test system: NCI-H23
DMS-273 = test system: DMS-273
A549 = test system: A549
SNB-75 = test system: SNB-75
LXFL 529 = test system: LXFL 529
OVCAR-8 = test system: OVCAR-8
OVCAR-5 = test system: OVCAR-5
DMS-114 = test system: DMS-114
M14 = test system: M14
OVCAR-4 = test system: OVCAR-4
K562 = test system: K562
SK-OV-3 = test system: SK-OV-3
HCT-15 = test system: HCT-15
RPMI-8226 = test system: RPMI-8226
TK-10 = test system: TK-10
RXF 393 = test system: RXF 393
KM-20L2 = test system: KM-20L2
SNB-78 = test system: SNB-78
SW-620 = test system: SW-620
CAKI-1 = test system: CAKI-1
HOP-92 = test system: HOP-92
EKVX = test system: EKVX
HL-60 = test system: HL-60
SNB-19 = test system: SNB-19
SR = test system: SR
A498 = test system: A498

Cc1ccccc1NC(=O)CSc1nnc(Cc2ccccc2)o1
GI50 (LOX IMVI): > 100 µM (inactive) | GI50 (HCC 2998): > 100 µM (inactive) | GI50 (COLO 205): > 100 µM (inactive) | GI50 (CCRF-CEM): > 100 µM (inactive) | GI50 (MOLT-4): > 100 µM (inactive) | GI50 (M19-MEL): > 100 µM (inactive) | GI50 (DLD-1): > 100 µM (inactive) | GI50 (IGROV-1): > 100 µM (inactive) | GI50 (HOP-18): > 100 µM (inactive) | GI50 (UACC-257): > 100 µM (inactive) | GI50 (HCT-116): > 100 µM (inactive) | GI50 (SF-539): > 100 µM (inactive) | GI50 (ACHN): > 100 µM (inactive) | GI50 (SF-295): > 100 µM (inactive) | GI50 (HT-29): > 100 µM (inactive) | GI50 (NCI-H460): > 100 µM (inactive) | GI50 (786-0): > 100 µM (inactive) | GI50 (Malme-3M): > 100 µM (inactive) | GI50 (NCI-H226): > 100 µM (inactive) | GI50 (UO-31): > 100 µM (inactive) | GI50 (SN12C): > 100 µM (inactive) | GI50 (UACC-62): > 100 µM (inactive) | GI50 (SF-268): > 100 µM (inactive) | GI50 (OVCAR-3): > 100 µM (inactive) | GI50 (HOP-62): > 100 µM (inactive) | GI50 (SK-MEL-5): > 100 µM (inactive) | GI50 (SK-MEL-28): > 100 µM (inactive) | GI50 (NCI-H522): > 100 µM (inactive) | GI50 (U-251): > 100 µM (inactive) | GI50 (SK-MEL-2): > 100 µM (inactive) | GI50 (KM12): > 100 µM (inactive) | GI50 (NCI-H23): > 100 µM (inactive) | GI50 (DMS-273): > 100 µM (inactive) | GI50 (A549): > 100 µM (inactive) | GI50 (SNB-75): > 100 µM (inactive) | GI50 (LXFL 529): > 100 µM (inactive) | GI50 (OVCAR-8): > 100 µM (inactive) | GI50 (OVCAR-5): > 100 µM (inactive) | GI50 (DMS-114): > 100 µM (inactive) | GI50 (M14): > 100 µM (inactive) | GI50 (OVCAR-4): > 100 µM (inactive) | GI50 (K562): > 100 µM (inactive) | GI50 (SK-OV-3): > 100 µM (inactive) | GI50 (HCT-15): > 100 µM | GI50 (RPMI-8226): > 100 µM (inactive) | GI50 (TK-10): > 100 µM (inactive) | GI50 (RXF 393): > 100 µM (inactive) | GI50 (KM-20L2): > 100 µM (inactive) | GI50 (SNB-78): > 100 µM (inactive)

CSc1nc(NC2OC(COC(C)=O)C(OC(C)=O)C(OC(C)=O)C2OC(C)=O)c(/N=C(\C)C(C)=O)c(=O)n1C (stereo not given)
GI50 (HCC 2998): > 100 µM (inactive) | GI50 (COLO 205): > 100 µM (inactive) | GI50 (CCRF-CEM): > 100 µM (inactive) | GI50 (MOLT-4): > 100 µM (inactive) | GI50 (M19-MEL): > 100 µM (inactive) | GI50 (DLD-1): > 100 µM (inactive) | GI50 (IGROV-1): > 100 µM (inactive) | GI50 (HOP-18): > 100 µM (inactive) | GI50 (UACC-257): > 100 µM (inactive) | GI50 (HCT-116): > 100 µM (inactive) | GI50 (SW-620): > 100 µM (inactive) | GI50 (SF-539): > 100 µM (inactive) | GI50 (SF-295): > 100 µM (inactive) | GI50 (HT-29): > 100 µM (inactive) | GI50 (CAKI-1): > 100 µM (inactive) | GI50 (786-0): > 100 µM (inactive) | GI50 (HOP-92): > 100 µM (inactive) | GI50 (EKVX): > 100 µM (inactive) | GI50 (Malme-3M): > 100 µM (inactive) | GI50 (NCI-H226): > 100 µM (inactive) | GI50 (UO-31): > 100 µM (inactive) | GI50 (UACC-62): > 100 µM (inactive) | GI50 (OVCAR-3): > 100 µM (inactive) | GI50 (HOP-62): > 100 µM (inactive) | GI50 (SK-MEL-5): > 100 µM (inactive) | GI50 (SK-MEL-2): > 100 µM (inactive) | GI50 (KM12): > 100 µM (inactive) | GI50 (HL-60): > 100 µM (inactive) | GI50 (A549): > 100 µM (inactive) | GI50 (LXFL 529): > 100 µM (inactive) | GI50 (OVCAR-8): > 100 µM (inactive) | GI50 (DMS-114): > 100 µM (inactive) | GI50 (SNB-19): > 100 µM (inactive) | GI50 (M14): > 100 µM (inactive) | GI50 (OVCAR-4): > 100 µM (inactive) | GI50 (K562): > 100 µM (inactive) | GI50 (SK-OV-3): > 100 µM (inactive) | GI50 (RPMI-8226): > 100 µM (inactive) | GI50 (TK-10): > 100 µM (inactive) | GI50 (SNB-78): > 100 µM (inactive)

Cc1ccc(/C=C(\NC(=O)c2ccccc2)c2nc3ccccc3[nH]2)cc1
GI50 (HCC 2998): 49.5 µM (inactive) | GI50 (COLO 205): 48.2 µM (inactive) | GI50 (M19-MEL): 46.5 µM (inactive) | GI50 (DLD-1): 56.8 µM (inactive) | GI50 (IGROV-1): > 100 µM (inactive) | GI50 (HOP-18): > 100 µM (inactive) | GI50 (UACC-257): 35.3 µM (inactive) | GI50 (HCT-116): 37.2 µM (inactive) | GI50 (SW-620): 50.4 µM (inactive) | GI50 (SF-539): > 100 µM (inactive) | GI50 (ACHN): 47.5 µM (inactive) | GI50 (SF-295): 36.6 µM (inactive) | GI50 (HT-29): 37.5 µM (inactive) | GI50 (NCI-H460): 37.2 µM (inactive) | GI50 (786-0): 39.3 µM (inactive) | GI50 (SR): 37.4 µM (inactive) | GI50 (HOP-92): 28.3 µM (inactive) | GI50 (EKVX): 74.5 µM (inactive) | GI50 (Malme-3M): 45.5 µM (inactive) | GI50 (UO-31): 48.9 µM (inactive) | GI50 (SN12C): 61 µM (inactive) | GI50 (UACC-62): 83.6 µM (inactive) | GI50 (SF-268): 60.8 µM (inactive) | GI50 (OVCAR-3): 46.9 µM (inactive) | GI50 (A498): 38 µM (inactive) | GI50 (HOP-62): > 100 µM (inactive) | GI50 (SK-MEL-5): 12.8 µM (inactive) | GI50 (SK-MEL-28): 71.9 µM (inactive) | GI50 (NCI-H522): 42.2 µM (inactive) | GI50 (U-251): 41.2 µM (inactive) | GI50 (SK-MEL-2): 31.6 µM (inactive) | GI50 (KM12): 40.6 µM (inactive) | GI50 (NCI-H23): 59.6 µM (inactive) | GI50 (HL-60): 23.9 µM (inactive) | GI50 (A549): 42.7 µM (inactive) | GI50 (LXFL 529): 32.2 µM (inactive) | GI50 (OVCAR-8): 43.8 µM (inactive) | GI50 (OVCAR-5): > 100 µM (inactive) | GI50 (DMS-114): 27.6 µM (inactive) | GI50 (SNB-19): 39.4 µM (inactive) | GI50 (M14): 50 µM (inactive) | GI50 (OVCAR-4): 70.5 µM (inactive) | GI50 (HCT-15): 45.6 µM | GI50 (TK-10): > 100 µM (inactive) | GI50 (RXF 393): > 100 µM (inactive) | GI50 (KM-20L2): 47.1 µM (inactive)
